Patent publication US12138256B2, “Treatment of cardiopulmonary disorders” (Bayer Aktiengesellschaft, priority 2021, dated 2024)

How the values were obtained:
[1] = tested on: total specific airway resistance (sRaw); assay: Phase I, healthy male subjects, 7 days inhalation: total specific airway resistance sRaw by bodyplethysmography (C-4.1); format: in vivo, human
Protocol: Healthy White male subjects, aged 18 to 45 years and with a body mass index (BMI) above/equal 18.5 and below/equal 29.9 kg/m2 were treated in a clinical pharmacological phase I study on seven days with inhaled once daily doses of 480 μg or 1000 μg or 2000 μg (2 capsules of 1000 μg) (nominal dose) of dry powder formulations of example 2 or Placebo. The subjects inhaled the drug powder from capsules (see under D-1, e.g. tables 22 and 23) inserted into a handheld inhalation device by one deep inhalative breath. The dry powder formulation of the drug is dispersed into the airstream and fine particles are transported into the deep parts of the lung where it is intended to cause a vasodilation of the blood vessels in PH patients for a substantial reduction of increased blood pressure in the central pulmonary blood vessels in PAH patients or other subtypes of PH. This effect cannot be shown in subjects with healthy lungs. In addition inhaled drug causes a dilation of the bronchial airways and thus also improves disease states of lung diseases in PH patients with pathological bronchoconstriction. This effect was measured via bodyplethysmography as reduction of Specific Airway Resistance in healthy subjects. After the deep inhalative breath the subjects hold breath for 2 seconds, so that the dry powder drug condenses from the airstream onto the surface of the deeper lung areas where it is deposited close to its site of intended pharmacological action. The drug dissolutes over the day and equilibrates the lung via lining fluid.

[2] = tested on: unilateral broncho-occlusion in anesthetized minipigs; assay: Unilateral broncho-occlusion minipig model: arterial oxygenation as proxy of VQ-mismatch, intrapulmonary selectivity (C-2.3); format: in vivo; details: for % decrease delta PAP (maximal hypoxic PAP) / % increase AUCSaO2 (unwanted desaturation effect): mean, n = 4
Protocol: These effects were more pronounced 90 min after inhalation of comparative example 11 (second intervention cycles (inhal)). […] Thus, the mean % changes in maximal hypoxic PAP and associated % changes in area under the oxygen saturation curve [AUCSaO2] were compared (see FIG. 65) within the respective group. As reference cycles in each group, we used cycle 3 for the inhaled applications as well as cycle 4 for the i.v. applications.

O=C(O)c1ccc(CCN(CCc2ccccc2OCc2ccc(-c3ccc(C(F)(F)F)cc3)cc2Cl)[C@H]2CCCc3nc(C(=O)O)ccc32)cc1 [example 2, (5S)-{[2-(4-Carboxyphenyl)ethyl][2-(2-{[3-chloro-4′-(trifluoromethyl)biphenyl-4-yl]methoxy}phenyl)-ethyl]amino}-5,6,7,8-tetrahydroquinoline-2-carboxylic acid]
total specific airway resistance, mean ± SD ([1]; 480 μg, 0 D 00 H 00 M): 1.078 ± 0.375 kPa/sec | total specific airway resistance, mean ± SD ([1]; 480 μg, 0 D 02 H 00 M): 0.839 ± 0.182 kPa/sec | total specific airway resistance, mean ± SD ([1]; 480 μg, 0 D 06 H 00 M): 0.800 ± 0.187 kPa/sec | total specific airway resistance, mean ± SD ([1]; 480 μg, 2 D 02 H 00 M): 0.883 ± 0.310 kPa/sec | total specific airway resistance, mean ± SD ([1]; 480 μg, 4 D 02 H 00 M): 0.807 ± 0.200 kPa/sec | total specific airway resistance, mean ± SD ([1]; 480 μg, 6 D 04 H 00 M): 0.798 ± 0.193 kPa/sec | total specific airway resistance, mean ± SD ([1]; 480 μg, 7 D 00 H 00 M): 0.823 ± 0.274 kPa/sec | total specific airway resistance, mean ± SD ([1]; 480 μg, 7 D 02 H 00 M): 0.777 ± 0.282 kPa/sec | total specific airway resistance, mean ± SD ([1]; 480 μg, 7 D 06 H 00 M): 0.803 ± 0.280 kPa/sec | total specific airway resistance, mean ± SD ([1]; 480 μg, SCREENING): 0.844 ± 0.327 kPa/sec | total specific airway resistance, mean ± SD ([1]; 480 μg, SCREENING 2): 0.832 ± 0.280 kPa/sec | total specific airway resistance, mean ± SD ([1]; 480 μg, −0 D 18 H 00 M (pretreatment day)): 0.921 ± 0.305 kPa/sec | total specific airway resistance, mean ± SD ([1]; 480 μg, −0 D 22 H 00 M (pretreatment day)): 0.928 ± 0.392 kPa/sec | total specific airway resistance, mean ± SD ([1]; 480 μg, −1 D 00 H 00 M (pretreatment day)): 0.939 ± 0.344 kPa/sec | total specific airway resistance, mean ± SD ([1]; 1000 μg, 0 D 00 H 00 M): 0.967 ± 0.233 kPa/sec | total specific airway resistance, mean ± SD ([1]; 1000 μg, 0 D 02 H 00 M): 0.859 ± 0.143 kPa/sec | total specific airway resistance, mean ± SD ([1]; 1000 μg, 0 D 06 H 00 M): 0.824 ± 0.180 kPa/sec | total specific airway resistance, mean ± SD ([1]; 1000 μg, 2 D 02 H 00 M): 0.797 ± 0.141 kPa/sec | total specific airway resistance, mean ± SD ([1]; 1000 μg, 4 D 02 H 00 M): 0.853 ± 0.172 kPa/sec | total specific airway resistance, mean ± SD ([1]; 1000 μg, 6 D 04 H 00 M): 0.787 ± 0.168 kPa/sec | total specific airway resistance, mean ± SD ([1]; 1000 μg, 7 D 00 H 00 M): 0.917 ± 0.227 kPa/sec | total specific airway resistance, mean ± SD ([1]; 1000 μg, 7 D 02 H 00 M): 0.764 ± 0.140 kPa/sec | total specific airway resistance, mean ± SD ([1]; 1000 μg, 7 D 06 H 00 M): 0.787 ± 0.188 kPa/sec | total specific airway resistance, mean ± SD ([1]; 1000 μg, SCREENING): 0.867 ± 0.376 kPa/sec | total specific airway resistance, mean ± SD ([1]; 1000 μg, SCREENING 2): 1.009 ± 0.340 kPa/sec | total specific airway resistance, mean ± SD ([1]; 1000 μg, −0 D 18 H 00 M (pretreatment day)): 0.901 ± 0.187 kPa/sec | total specific airway resistance, mean ± SD ([1]; 1000 μg, −0 D 22 H 00 M (pretreatment day)): 0.903 ± 0.255 kPa/sec | total specific airway resistance, mean ± SD ([1]; 1000 μg, −1 D 00 H 00 M (pretreatment day)): 0.996 ± 0.194 kPa/sec | total specific airway resistance, mean ± SD ([1]; 2000 μg, 0 D 00 H 00 M): 0.947 ± 0.143 kPa/sec | total specific airway resistance, mean ± SD ([1]; 2000 μg, 0 D 02 H 00 M): 0.677 ± 0.139 kPa/sec | total specific airway resistance, mean ± SD ([1]; 2000 μg, 0 D 06 H 00 M): 0.651 ± 0.149 kPa/sec | total specific airway resistance, mean ± SD ([1]; 2000 μg, 2 D 02 H 00 M): 0.748 ± 0.155 kPa/sec | total specific airway resistance, mean ± SD ([1]; 2000 μg, 4 D 02 H 00 M): 0.709 ± 0.178 kPa/sec | total specific airway resistance, mean ± SD ([1]; 2000 μg, 6 D 04 H 00 M): 0.722 ± 0.168 kPa/sec | total specific airway resistance, mean ± SD ([1]; 2000 μg, 7 D 00 H 00 M): 0.844 ± 0.097 kPa/sec | total specific airway resistance, mean ± SD ([1]; 2000 μg, 7 D 02 H 00 M): 0.716 ± 0.089 kPa/sec | total specific airway resistance, mean ± SD ([1]; 2000 μg, 7 D 06 H 00 M): 0.730 ± 0.151 kPa/sec | total specific airway resistance, mean ± SD ([1]; 2000 μg, SCREENING): 0.899 ± 0.150 kPa/sec | total specific airway resistance, mean ± SD ([1]; 2000 μg, SCREENING 2): 0.957 ± 0.140 kPa/sec | total specific airway resistance, mean ± SD ([1]; 2000 μg, −0 D 18 H 00 M (pretreatment day)): 0.943 ± 0.245 kPa/sec | total specific airway resistance, mean ± SD ([1]; 2000 μg, −0 D 22 H 00 M (pretreatment day)): 0.933 ± 0.165 kPa/sec | total specific airway resistance, mean ± SD ([1]; 2000 μg, −1 D 00 H 00 M (pretreatment day)): 0.962 ± 0.266 kPa/sec | decrease of total specific airway resistance sRaw compared to baseline ([1]; 6 h after first dosing, all dose groups): −0.142 to −0.296 kPa/sec

O=C(O)c1ccc(CCN(CCc2ccccc2OCc2ccc(-c3ccc(C(F)(F)F)cc3)cc2Cl)[C@H]2CCCc3nc(C(=O)O)ccc32)cc1 [comparative example 11, (5S)-5-{[2-(4-carboxyphenyl)ethyl][2-(2-{[3-chloro-4′-(trifluoromethyl)[biphenyl]-4-yl]methoxy}phenyl)ethyl]amino}-5,6,7,8-tetrahydroquinoline-2-carboxylic acid]
time of maximal effects after inhalation ([2]; 100 μg/kg nominal dose inhaled): 90 min | % decrease delta PAP (maximal hypoxic PAP) ([2]; Inhalation I, Cycle 5): 1.8% | % increase AUCSaO2 (unwanted desaturation effect) ([2]; Inhalation I, Cycle 5): −18.6% | % decrease delta PAP (maximal hypoxic PAP) ([2]; Inhalation II, Cycle 6): −19.6% | % increase AUCSaO2 (unwanted desaturation effect) ([2]; Inhalation II, Cycle 6): −39.4% | hypoxia-induced increases in mean pulmonary artery pressure (mPAP) ([2]; after inhaled (cycle 6) as well as i.v. application (cycles 7 and 8)): effectively reduced | BP ([2]; i.v. application, 30 μg/kg and 100 μg/kg): expected drop in BP | desaturation area (AUCSaO2) ([2]; inhaled application, 100 μg/kg nominal dose): did not increase desaturation area | % decrease delta PAP (maximal hypoxic PAP) ([2]; iv Bolus 30 μg): −23.8% | % increase AUCSaO2 (unwanted desaturation effect) ([2]; iv Bolus 30 μg): 48.1% | % decrease delta PAP (maximal hypoxic PAP) ([2]; iv Bolus 100 μg): −14.3% | % increase AUCSaO2 (unwanted desaturation effect) ([2]; iv Bolus 100 μg): 282.8% | desaturation area (AUCSaO2) ([2]; systemic (i.v.) application, 30 and 100 μg/kg): dose dependent increase in desaturation area
